Results reported in patent publication US9526766B2, “Potentiation of antibiotic treatment with a protein-lipid complex” (priority 2012, dated 2016).
Values after ≈ are worked out from the molar mass of the structure shown. Where two headings read alike, the source gives them in different places.

What was measured:
MRSA strain NRS 384 = assay: Methicillin resistance development under stepwise methicillin exposure; assay type: cell-based; details: Staphylococcus aureus, read-out: Methicillin MIC after adaptation, NRS 384
Text: ALAFAC and Methicillin Resistance Development. Experiments were designed to test the impact of ALAFAC on the adaptation of MRSA to methicillin in liquid cultures, and to test ALAFAC's potential to inhibit resistance increase during antibiotic pressure. […]

Staphylococcus aureus = assay: Minimal bactericidal concentration (MBC) from MIC plates; assay type: cell-based; details: antibiotic alone
Text: The MBC was defined as the lowest concentration of antimicrobials yielding colony counts <0.1% (3 log10 reduction) of the initial inoculum (as determined by colony counts from the growth control well immediately after inoculation) as described.

[1] = tested on: S. aureus NRS70 (MRSA) nasopharyngeal colonization; assay: Murine nasopharyngeal colonization model, intranasal treatment; assay type: in vivo, Staphylococcus aureus; details: for Colonization burden: mice colonized with NRS70 for 48 hours, methicillin single dose 100 μg (5,000 μg/ml) alone, ALAFAC alone at the same dose
Protocol: Methodology: Six-week-old female BALB/cByJ mice from Jackson Laboratories (Bar Harbor, Me., U.S.A.) were maintained in filter-top cages on standard laboratory chow and water ad libitum until use. Mice were colonized as described previously. In short, 20 μl of a bacterial suspension containing 5×10^6 CFUs of EF3030 pneumococci, 1×10^8 CFUs of SP670 pneumococci, or 5×10^7 NRS70 methicillin-resistant S. aureus in PBS were pipetted into the nares of non-anesthetized mice. After 48 hours, mice were treated with 20 μl gentamicin (0-5,000 μg/mL), 20 μl penicillin (0-5,000 μg/mL), or 20 μl of methicillin (0-5,000 μg/ml) in the presence or absence of 50 or 100 μg ALAFAC in the nares for 6 hours as a single dose. Colonization burden was then assessed after euthanizing the animals by enumerating viable bacteria from harvested nasopharyngeal tissue after the nasal wash. Nasopharyngeal tissue was dissected out as described by removing the upper skull bone, and harvesting the tissue present in the nasal conchae with forceps. Bacterial load was measured by determining viable plate counts from the homogenized tissue.
Mice were colonized as described. In short, 10 μl of a bacterial suspension containing 5×10^7 CFUs of NRS 70 staphylococci in PBS were pipetted into the nares of non-anesthetized mice. After 24 hours, mice were treated with 20 μl methicillin (0-100 μg or 0-5,000 μg/mL) in the presence or absence of 20 μl (100 μg) ALAFAC in the nares for 12 hours. Colonization burden was then assessed after euthanizing the animals by enumerating viable bacteria both in a nasopharyngeal lavage obtained by injecting 100 μL PBS in the trachea of mice and collecting it as it flowed out the nares, and from harvested nasopharyngeal tissue after the nasal wash. Nasopharyngeal tissue was dissected out as described by removing the upper skull bone, and harvesting the tissue present in the nasal conchae with forceps. Bacterial load was measured by determining viable plate counts from the nasal lavage or from homogenized tissue as described above.

Escherichia coli = assay: Bactericidal activity of ALAFAC alone; assay type: cell-based
Staphylococci [2] = details: concentrations up to 5 mg/ml; cited from earlier work
Staphylococci [3] = assay: Gentamicin, Vancomycin FL and Bocillin FL binding; assay type: cell-based, Staphylococcus aureus; details: for Cell-associated level of vancomycin on addition of ALAFAC / Bocillin FL association with cells on addition of ALAFAC: 100 μg/mL ALAFAC
Protocol: Gentamicin, Vancomycin and Bocillin FL Binding. We adapted a previously described method using AlexaFluor 488-gentamicin, vancomycin FL and Bocillin FL as reporter antibiotics to investigate association of these compounds with the staphylococcal cells. In brief, indicated strains were grown in TSB to an OD600nm of 0.5. Antibiotics were added at the following concentrations: Gentamicin at 50 μg/mL, Vancomycin FL at 20 μg/mL, Bocillin FL at 25 μg/mL alone, or in combination with ALAFAC at 100 μg/mL.
After 30 minutes, cultures were centrifuged at 9,000×g for 4 min, washed four times with PBS, and resuspended in a small volume of PBS. Cells were lysed by 5 successive freeze thaw cycles at −80° C. and 37° C. for 5 min each as described. The Bocillin FL, vancomycin FL or Alexa Fluor 488-gentamicin concentration was determined by measuring the amount of fluorescent material in a Synergy 2 microplate reader (Biotek) using excitation and emission wavelengths set at 485 and 530 nm, respectively. Linearity was obtained between 2 and 800 μg/mL; (R^2=0.9983) for AlexaFluor 488-gentamicin, between 0.5 and 100 μg/mL; (R^2=0.9928) for Bocillin FL, and between 0.25 and 50 μg/mL; (R^2=0.9919) for Vancomycin FL, with binding expressed as a ratio of the fluorescence of each sample divided with the sample protein content, determined by the 280/260 nm ratio using the using a BioTek Synergy 2 plate reader with the Take3 microdrop addition (Biotek)

Bacillus subtilis = details: concentrations up to 5 mg/ml; cited from earlier work
Pseudomonas aeruginosa = details: concentrations up to 5 mg/ml; cited from earlier work
[4] = in vivo; cited from earlier work

## COc1cccc(OC)c1C(=O)N[C@@H]1C(=O)N2[C@@H]1SC(C)(C)[C@@H]2C(=O)O [Methicillin, methicillin]
MRSA strain NRS 384; 8 cycles with increasing methicillin, no ALAFAC
  MIC: 512 µg/mL (≈ 1350 µM)
MRSA strain NRS 384; 10 cycles in methicillin plus ALAFAC 100 μg/mL (6 μM), MIC tested without ALAFAC
  MIC: 64 µg/mL
Staphylococcus aureus; Staphylococcus aureus, NRS1, S. aureus NRS1, read-out: MBC
  MBC: > 256 µg/mL
Staphylococcus aureus; Staphylococcus aureus, NRS70, S. aureus NRS70, read-out: MBC
  MBC: 128 µg/mL (≈ 336 µM)
Staphylococcus aureus; Staphylococcus aureus, NRS71, S. aureus NRS71, read-out: MBC
  MBC: > 256 µg/mL
Staphylococcus aureus; Staphylococcus aureus, NRS100, S. aureus NRS100, read-out: MBC
  MBC: > 256 µg/mL
Staphylococcus aureus; Staphylococcus aureus, NRS123, S. aureus NRS123, read-out: MBC
  MBC: > 256 µg/mL
Staphylococcus aureus; Staphylococcus aureus, NRS384, S. aureus NRS384, read-out: MBC
  MBC: > 256 µg/mL
Staphylococcus aureus; Staphylococcus aureus, S. aureus 11090306, read-out: MBC
  MBC: 64 µg/mL (≈ 168 µM)
Staphylococcus aureus; Staphylococcus aureus, S. aureus 10307570, read-out: MBC
  MBC: > 256 µg/mL
[1]; NRS70, mice, within 12 hours, antibiotic alone
  Minimum antibiotic concentration for bactericidal (>3 log10) activity on murine nasopharyngeal colonization: >100 μg/dose
[1]; mice colonized with NRS 70 for 24 h, one dose, 100 μg methicillin alone or with 100 μg ALAFAC, 12 hours
  MRSA colonization, nasopharyngeal tissue: failed to significantly reduce
[1]
  Colonization burden: no effect

## gentamicin
Staphylococcus aureus; S. aureus NRS1
  MBC: >256 µg/mL
Staphylococcus aureus; S. aureus NRS384
  MBC: 16 µg/mL

B1: ALAFAC: non-covalent complex of alpha-lactalbumin and fatty acid (oleic acid); labeled HAMLET or HL in drawings and tables (protein, UniProt P00709 20-142, looked up)
Alpha-lactalbumin: KQFTKCELSQLLKDIDGYGGIALPELICTMFHTSGYDTQAIVENNESTEYGLFQISNKLWCKSSQVPQSRNICDISCDKFLDDDITDDIMCAKKILDIKGIDYWLAHKALCTEKLEQWLCEKL
modifications: complexed with oleic acid
Escherichia coli
  Concentration of ALAFAC not triggering death: exceeding 1,000 μg/ml
Staphylococci [2]
  Bactericidal activity: no detectable activity
Staphylococci [3]; NRS384, ALAFAC 100 μg/mL, P=0.09
  Increase of cell-associated level of gentamicin by ALAFAC: 2.6 fold
Staphylococci [3]; VISA strain NRS 1
  Cell-associated level of vancomycin on addition of ALAFAC: significantly increased
Staphylococci [3]; methicillin-resistant strain NRS 384
  Bocillin FL association with cells on addition of ALAFAC: significantly increased
Staphylococci [3]; methicillin-sensitive strain
  Bocillin FL association with cells on addition of ALAFAC: no significant increase
Staphylococci [3]; vancomycin-sensitive strain
  Cell-associated level of vancomycin on addition of ALAFAC: did not increase
Bacillus subtilis
  Bactericidal activity: no detectable activity
Pseudomonas aeruginosa
  Bactericidal activity: no detectable activity
[1]
  Colonization burden: no effect
[4]
  Toxic side effects: without showing any toxic side effects
Physiological buffer (0.9% saline or PBS) at 4° C.
  Storage time: at least 3 months
Room temperature
  Storage time: at least three
